Measurements published in ChEMBL document CHEMBL1137863, “Triamino derivatives of triazolotriazine and triazolopyrimidine as adenosine A2a receptor antagonists” (Bioorg Med Chem Lett, 2004).

What was measured:
[1] = biological target: T1, Adenosine receptor A1 (Rattus norvegicus, UniProt P25099); assay: biochemical
T1 sequence (P25099 whole entry): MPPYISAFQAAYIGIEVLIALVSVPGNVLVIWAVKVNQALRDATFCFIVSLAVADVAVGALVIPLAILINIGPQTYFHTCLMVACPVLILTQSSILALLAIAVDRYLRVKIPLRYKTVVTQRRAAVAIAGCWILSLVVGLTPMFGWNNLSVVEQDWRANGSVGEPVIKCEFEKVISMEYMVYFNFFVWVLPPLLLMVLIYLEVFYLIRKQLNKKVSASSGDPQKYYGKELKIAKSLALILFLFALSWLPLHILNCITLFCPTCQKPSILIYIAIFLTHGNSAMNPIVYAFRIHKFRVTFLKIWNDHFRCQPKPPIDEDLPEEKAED
Description: Binding affinity against Adenosine A1 receptor from rat cerebral cortex was determined using [3H]DPCPX as radioligand

[2] = tested on: Mus musculus; assay: Dose required for oral activity against mice catalepsy induced by 3 mg/kg haloperidol after s.c. administration; type: functional
[3] = biological target: Adenosine receptor A2a (Rattus norvegicus, UniProt P30543)
Sequence of Adenosine receptor A2a (P30543 whole entry): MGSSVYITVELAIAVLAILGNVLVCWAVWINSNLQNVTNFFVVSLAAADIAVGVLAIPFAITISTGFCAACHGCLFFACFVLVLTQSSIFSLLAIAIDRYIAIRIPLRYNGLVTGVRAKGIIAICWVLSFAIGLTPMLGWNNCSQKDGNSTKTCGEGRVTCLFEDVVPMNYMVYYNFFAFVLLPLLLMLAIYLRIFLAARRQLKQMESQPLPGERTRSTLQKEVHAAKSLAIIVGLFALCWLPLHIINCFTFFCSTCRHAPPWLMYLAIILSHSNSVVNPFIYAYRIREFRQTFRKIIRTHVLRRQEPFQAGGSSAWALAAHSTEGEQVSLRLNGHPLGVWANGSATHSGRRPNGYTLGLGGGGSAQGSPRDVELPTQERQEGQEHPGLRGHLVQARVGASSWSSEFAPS
Description: Binding affinity against Adenosine A2a receptor determined using [3H]ZM-241385 as radioligand

Row | SMILES | Ki [1] | Ki [3] | Dose [2]
1 | CN(CCN1CCN(c2ccc(F)cc2F)CC1)c1nc(N)n2nc(-c3ccco3)nc2n1 |  |  | 3 mg/kg
2 | Nc1nc(NCCCN2CCN(c3ccc(F)cc3F)CC2)nc2nc(-c3ccco3)nn12 | > 500 nM | 93 nM | 
3 | CN(CCN1CCN(c2ccccc2)CC1)c1nc(N)n2nc(-c3ccco3)nc2n1 | 1500 nM | 11 nM | 3 mg/kg
4 | Nc1nc(NCCCN2CCN(c3ccccc3)CC2)nc2nc(-c3ccco3)nn12 | > 500 nM |  | 
5 | Nc1nc(N2CCN(c3c(F)cc(F)cc3F)CC2)nc2nc(-c3ccco3)nn12 |  | 29 nM | 
6 | CN(CCN1CCN(c2ccc(F)cc2F)CC1)c1cc2nc(-c3ccco3)nn2c(N)n1 | 750 nM |  | 3 mg/kg
7 | Nc1nc(NCCN2CCN(c3ccccc3)CC2)nc2nc(-c3ccco3)nn12 | > 500 nM | 22 nM | >10 mg/kg

Second part, led by results:

Row | Ki [1] | Ki [3] | SMILES | Dose [2]
8 | 1100 nM |  | Nc1nc(NCCN2CCN(c3ccc(F)cc3F)CC2)nc2nc(-c3ccco3)nn12 | 10 mg/kg
9 | > 500 nM | 100 nM | Nc1nc(NCCCN2CCN(c3c(F)cc(F)cc3F)CC2)nc2nc(-c3ccco3)nn12 | 
10 | > 500 nM | 92 nM | Nc1nc(NCCN2CCN(c3c(F)cc(F)cc3F)CC2)cc2nc(-c3ccco3)nn12 | 
11 | 790 nM | 24 nM | CN(CCN1CCN(c2c(F)cc(F)cc2F)CC1)c1cc2nc(-c3ccco3)nn2c(N)n1 | 
12 | 2600 nM | 55 nM | Nc1nc(NCCN2CCN(c3ccc(F)cc3F)CC2)cc2nc(-c3ccco3)nn12 | >10 mg/kg
13 | > 500 nM | 24 nM | Nc1nc(NCCN2CCN(c3c(F)cc(F)cc3F)CC2)nc2nc(-c3ccco3)nn12 | 
